The values that follow are results of earlier work, collected in publication PMC9026148, “Pre-Clinical Study Evaluating Novel Protein Phosphatase 2A Activators as Therapeutics for Neuroblastoma” (Cancers, 2022).

Structures are written as SMILES.

In this data set the test system is CYP3A4. Also on record: method as in PMID 32954276. Particulars: at 1 h, cited from earlier work.

As a reminder, the IC50 is the midpoint of a concentration-inhibition curve. For the compound `O=S(=O)(N[C@@H]1CCC[C@H](N2c3ccccc3Oc3ccccc32)[C@H]1O)c1ccc(OC(F)(F)F)cc1` [NZ-8-061], the “time-dependent inhibition of CYP3A4 (fold shift)” value is given as more than 30 fold. Also, the IC50 (time-dependent inhibition) is less than 1000 nM.
